Assay results: the supplement of paper PMC8612539
Values after ≈ are worked out from the molar mass of the structure shown.

Tested on: Pasteurella multocida
Assay: minimum inhibitory concentration (MIC)
Description: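 Broth microdilution MIC (Sensititre BOPO7F bovine plate, CLSI methods) of 19 antimicrobials against field isolates of P. multocida, M. haemolytica, H. somni (deep nasopharyngeal swabs) and E. coli, Enterococcus spp. (rectal swabs) from weaned dairy heifers. Incubation 16-24 h at 35 C. MIC is the lowest concentration preventing visible growth. Values with <= or > lie at the tested range limits. Trimethoprim-sulfamethoxazole is given as the trimethoprim component of a 1:19 mixture.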

CCCN1C[C@H](C)[C@@H](O)[C@](C)(O)[C@@H](CC)OC(=O)[C@H](C)[C@@H](O[C@H]2C[C@@](C)(OC)[C@@H](O)[C@H](C)O2)[C@H](C)[C@@H](O[C@@H]2O[C@H](C)C[C@H](N(C)C)[C@H]2O)[C@](C)(O)C[C@H]1C [Gamithromycin]
Details | minimum inhibitory concentration [µg/mL]
isolate (source animal id): 10 | 8 (≈ 10.3 µM)
isolate (source animal id): 11 | 8 (≈ 10.3 µM)
isolate (source animal id): 12 | 8 (≈ 10.3 µM)
isolate (source animal id): 19 | 8 (≈ 10.3 µM)
isolate (source animal id): 23 | 4 (≈ 5.15 µM)
isolate (source animal id): 26 | 4 (≈ 5.15 µM)
isolate (source animal id): 98 | 8 (≈ 10.3 µM)
isolate (source animal id): 104 | > 8
isolate (source animal id): 115 | > 8
isolate (source animal id): 117 | 8 (≈ 10.3 µM)
isolate (source animal id): 118 | 8 (≈ 10.3 µM)
isolate (source animal id): 121 | > 8
isolate (source animal id): 124 | 8 (≈ 10.3 µM)
isolate (source animal id): 125 | 8 (≈ 10.3 µM)
isolate (source animal id): 128 | > 8
isolate (source animal id): 131 | > 8
isolate (source animal id): 135 | > 8
isolate (source animal id): 136 | > 8
isolate (source animal id): 140 | > 8
isolate (source animal id): 144 | 8 (≈ 10.3 µM)
isolate (source animal id): 146 | 8 (≈ 10.3 µM)
isolate (source animal id): 150 | > 8
isolate (source animal id): 151 | > 8
isolate (source animal id): 153 | > 8
isolate (source animal id): 155 | 8 (≈ 10.3 µM)
isolate (source animal id): 157 | 4 (≈ 5.15 µM)
isolate (source animal id): 160 | > 8
isolate (source animal id): 164 | > 8
isolate (source animal id): 165 | > 8
isolate (source animal id): 167 | ≤ 1
isolate (source animal id): 168 | 8 (≈ 10.3 µM)
isolate (source animal id): 169 | ≤ 1
isolate (source animal id): 170 | 2 (≈ 2.57 µM)
isolate (source animal id): 171 | ≤ 1
isolate (source animal id): 172 | ≤ 1
isolate (source animal id): 173 | > 8
isolate (source animal id): 174 | ≤ 1
isolate (source animal id): 175 | ≤ 1
isolate (source animal id): 176 | ≤ 1
isolate (source animal id): 177 | ≤ 1
isolate (source animal id): 178 | ≤ 1
isolate (source animal id): 179 | ≤ 1
isolate (source animal id): 182 | 4 (≈ 5.15 µM)
isolate (source animal id): 192 | ≤ 1
isolate (source animal id): 193 | ≤ 1
isolate (source animal id): 195 | 2 (≈ 2.57 µM)
isolate (source animal id): 196 | ≤ 1
isolate (source animal id): 197 | 2 (≈ 2.57 µM)
isolate (source animal id): 198 | > 8
isolate (source animal id): 199 | ≤ 1
isolate (source animal id): 200 | ≤ 1
isolate (source animal id): 201 | ≤ 1
isolate (source animal id): 203 | ≤ 1
isolate (source animal id): 204 | ≤ 1
isolate (source animal id): 205 | > 8
isolate (source animal id): 206 | ≤ 1
isolate (source animal id): 207 | ≤ 1
isolate (source animal id): 208 | ≤ 1
isolate (source animal id): 209 | ≤ 1
isolate (source animal id): 210 | > 8
isolate (source animal id): 213 | ≤ 1
isolate (source animal id): 216 | ≤ 1
isolate (source animal id): 223 | 8 (≈ 10.3 µM)
isolate (source animal id): 227 | ≤ 1
isolate (source animal id): 229 | 8 (≈ 10.3 µM)
isolate (source animal id): 233 | 8 (≈ 10.3 µM)
isolate (source animal id): 234 | 8 (≈ 10.3 µM)
isolate (source animal id): 237 | 8 (≈ 10.3 µM)
isolate (source animal id): 241 | 8 (≈ 10.3 µM)
isolate (source animal id): 245 | 8 (≈ 10.3 µM)
isolate (source animal id): 247 | 8 (≈ 10.3 µM)
isolate (source animal id): 250 | 8 (≈ 10.3 µM)
isolate (source animal id): 254 | 8 (≈ 10.3 µM)
isolate (source animal id): 255 | 8 (≈ 10.3 µM)
isolate (source animal id): 258 | ≤ 1
isolate (source animal id): 261 | 8 (≈ 10.3 µM)
isolate (source animal id): 262 | 8 (≈ 10.3 µM)
isolate (source animal id): 269 | ≤ 1
isolate (source animal id): 270 | 8 (≈ 10.3 µM)
isolate (source animal id): 274 | 8 (≈ 10.3 µM)
isolate (source animal id): 275 | 8 (≈ 10.3 µM)
isolate (source animal id): 276 | 8 (≈ 10.3 µM)
isolate (source animal id): 277 | ≤ 1
isolate (source animal id): 278 | 8 (≈ 10.3 µM)
isolate (source animal id): 279 | 8 (≈ 10.3 µM)
isolate (source animal id): 280 | > 8
isolate (source animal id): 284 | > 8
isolate (source animal id): 285 | > 8
isolate (source animal id): 287 | 8 (≈ 10.3 µM)
isolate (source animal id): 290 | 8 (≈ 10.3 µM)
isolate (source animal id): 294 | 8 (≈ 10.3 µM)
isolate (source animal id): 295 | > 8
isolate (source animal id): 296 | 8 (≈ 10.3 µM)
isolate (source animal id): 307 | 8 (≈ 10.3 µM)
isolate (source animal id): 310 | 8 (≈ 10.3 µM)
isolate (source animal id): 311 | 8 (≈ 10.3 µM)
isolate (source animal id): 312 | > 8
isolate (source animal id): 313 | > 8
isolate (source animal id): 315 | > 8
isolate (source animal id): 316 | > 8

CC1(C)S[C@@H]2[C@H](NC(=O)Cc3ccccc3)C(=O)N2[C@H]1C(=O)O [Penicillin]
Details | minimum inhibitory concentration [µg/mL]
isolate (source animal id): 10 | 0.25 (≈ 0.748 µM)
isolate (source animal id): 11 | 0.25 (≈ 0.748 µM)
isolate (source animal id): 12 | 0.25 (≈ 0.748 µM)
isolate (source animal id): 19 | 0.25 (≈ 0.748 µM)
isolate (source animal id): 23 | ≤ 0.12
isolate (source animal id): 26 | 0.25 (≈ 0.748 µM)
isolate (source animal id): 98 | ≤ 0.12
isolate (source animal id): 104 | ≤ 0.12
isolate (source animal id): 115 | ≤ 0.12
isolate (source animal id): 117 | 0.25 (≈ 0.748 µM)
isolate (source animal id): 118 | ≤ 0.12
isolate (source animal id): 121 | 0.25 (≈ 0.748 µM)
isolate (source animal id): 124 | 0.25 (≈ 0.748 µM)
isolate (source animal id): 125 | 0.25 (≈ 0.748 µM)
isolate (source animal id): 128 | ≤ 0.12
isolate (source animal id): 131 | 0.25 (≈ 0.748 µM)
isolate (source animal id): 135 | 0.25 (≈ 0.748 µM)
isolate (source animal id): 136 | 0.25 (≈ 0.748 µM)
isolate (source animal id): 140 | 0.25 (≈ 0.748 µM)
isolate (source animal id): 144 | ≤ 0.12
isolate (source animal id): 146 | ≤ 0.12
isolate (source animal id): 150 | ≤ 0.12
isolate (source animal id): 151 | ≤ 0.12
isolate (source animal id): 153 | ≤ 0.12
isolate (source animal id): 155 | 0.25 (≈ 0.748 µM)
isolate (source animal id): 157 | ≤ 0.12
isolate (source animal id): 160 | ≤ 0.12
isolate (source animal id): 164 | ≤ 0.12
isolate (source animal id): 165 | ≤ 0.12
isolate (source animal id): 167 | ≤ 0.12
isolate (source animal id): 168 | 0.25 (≈ 0.748 µM)
isolate (source animal id): 169 | ≤ 0.12
isolate (source animal id): 170 | > 8
isolate (source animal id): 171 | ≤ 0.12
isolate (source animal id): 172 | ≤ 0.12
isolate (source animal id): 173 | 0.25 (≈ 0.748 µM)
isolate (source animal id): 174 | ≤ 0.12
isolate (source animal id): 175 | ≤ 0.12
isolate (source animal id): 176 | ≤ 0.12
isolate (source animal id): 177 | ≤ 0.12
isolate (source animal id): 178 | ≤ 0.12
isolate (source animal id): 179 | ≤ 0.12
isolate (source animal id): 182 | ≤ 0.12
isolate (source animal id): 192 | ≤ 0.12
isolate (source animal id): 193 | ≤ 0.12
isolate (source animal id): 195 | ≤ 0.12
isolate (source animal id): 196 | ≤ 0.12
isolate (source animal id): 197 | ≤ 0.12
isolate (source animal id): 198 | 0.25 (≈ 0.748 µM)
isolate (source animal id): 199 | ≤ 0.12
isolate (source animal id): 200 | ≤ 0.12
isolate (source animal id): 201 | ≤ 0.12
isolate (source animal id): 203 | ≤ 0.12
isolate (source animal id): 204 | ≤ 0.12
isolate (source animal id): 205 | 0.25 (≈ 0.748 µM)
isolate (source animal id): 206 | ≤ 0.12
isolate (source animal id): 207 | ≤ 0.12
isolate (source animal id): 208 | ≤ 0.12
isolate (source animal id): 209 | ≤ 0.12
isolate (source animal id): 210 | 0.25 (≈ 0.748 µM)
isolate (source animal id): 213 | ≤ 0.12
isolate (source animal id): 216 | ≤ 0.12
isolate (source animal id): 223 | 0.25 (≈ 0.748 µM)
isolate (source animal id): 227 | ≤ 0.12
isolate (source animal id): 229 | ≤ 0.12
isolate (source animal id): 233 | ≤ 0.12
isolate (source animal id): 234 | ≤ 0.12
isolate (source animal id): 237 | ≤ 0.12
isolate (source animal id): 241 | ≤ 0.12
isolate (source animal id): 245 | ≤ 0.12
isolate (source animal id): 247 | ≤ 0.12
isolate (source animal id): 250 | ≤ 0.12
isolate (source animal id): 254 | 0.25 (≈ 0.748 µM)
isolate (source animal id): 255 | ≤ 0.12
isolate (source animal id): 258 | ≤ 0.12
isolate (source animal id): 261 | ≤ 0.12
isolate (source animal id): 262 | ≤ 0.12
isolate (source animal id): 269 | ≤ 0.12
isolate (source animal id): 270 | ≤ 0.12
isolate (source animal id): 274 | ≤ 0.12
isolate (source animal id): 275 | 0.25 (≈ 0.748 µM)
isolate (source animal id): 276 | 0.25 (≈ 0.748 µM)
isolate (source animal id): 277 | ≤ 0.12
isolate (source animal id): 278 | ≤ 0.12
isolate (source animal id): 279 | 0.25 (≈ 0.748 µM)
isolate (source animal id): 280 | 0.25 (≈ 0.748 µM)
isolate (source animal id): 284 | 0.25 (≈ 0.748 µM)
isolate (source animal id): 285 | 0.25 (≈ 0.748 µM)
isolate (source animal id): 287 | 0.25 (≈ 0.748 µM)
isolate (source animal id): 290 | 0.25 (≈ 0.748 µM)
isolate (source animal id): 294 | 0.25 (≈ 0.748 µM)
isolate (source animal id): 295 | 0.25 (≈ 0.748 µM)
isolate (source animal id): 296 | ≤ 0.12
isolate (source animal id): 307 | 0.25 (≈ 0.748 µM)
isolate (source animal id): 310 | 0.25 (≈ 0.748 µM)
isolate (source animal id): 311 | 0.25 (≈ 0.748 µM)
isolate (source animal id): 312 | ≤ 0.12
isolate (source animal id): 313 | 0.25 (≈ 0.748 µM)
isolate (source animal id): 315 | 0.25 (≈ 0.748 µM)
isolate (source animal id): 316 | 0.25 (≈ 0.748 µM)
